Data taken from the NIST ThermoML archive (doi:10.1016/j.tca.2014.06.031).

Columns and labels:
[1] = Liquid; for speed of sound: Sing-around technique in a fixed-path interferometer; for mass density: Vibrating tube method
[2] = refractive index (Na D-line) (dimensionless); conditions: 101.33 kPa, Liquid, Standard Abbe refractometry
[3] = xn = mol fraction of the nth substance listed; conditions: 101 kPa, Liquid; for speed of sound: Frequency=3 MHz, Sing-around technique in a fixed-path interferometer; for mass density: Vibrating tube method
[4] = refractive index (Na D-line) (dimensionless); xn = mol fraction of the nth substance listed; conditions: 101 kPa, Liquid, Standard Abbe refractometry

CCOC(=O)OCC [diethyl carbonate]
Conditions | speed of sound [m/s]
[1], 298.15 K, 101 kPa, Frequency=3 MHz | 1176.6

Conditions | mass density [kg/m3]
[1], 298.15 K, 101 kPa | 969.32

Conditions | refractive index
[2], 298.15 K | 1.38249

CCCCCCC(=O)O [heptanoic acid]
[1], 101.33 kPa
Conditions | mass density [kg/m3] | speed of sound [m/s]
293.15 K | 917.65 | 1295.4
298.15 K | 913.47 | 1277.7
303.15 K | 909.29 | 1259.9
308.15 K | 905.11 | 1242.2
313.15 K | 900.94 | 1224.7

[2]
Conditions | refractive index
293.15 K | 1.42336
298.15 K | 1.42138
303.15 K | 1.41935
308.15 K | 1.41733
313.15 K | 1.4153

CCOC(=O)OCC [diethyl carbonate] + CCO
298.15 K
Conditions | mass density, [3] [kg/m3] | refractive index, [4] | speed of sound, [3] [m/s]
x1 = 0.0415 | 800.3 | 1.36136 | 1145.2
x1 = 0.0943 | 817.71 | 1.36347 | 1147.3
x1 = 0.1932 | 845.85 | 1.36698 | 1150.9
x1 = 0.2929 | 869.58 | 1.36981 | 1154
x1 = 0.3938 | 889.96 | 1.37241 | 1156.9
x1 = 0.4965 | 907.82 | 1.3746 | 1159.8
x1 = 0.597 | 922.99 | 1.37647 | 1162.8
x1 = 0.6924 | 935.73 | 1.37805 | 1166
x1 = 0.7911 | 947.58 | 1.37957 | 1169.7
x1 = 0.899 | 959.27 | 1.38109 | 1173.7
x1 = 0.9413 | 963.58 | 1.38167 | 1175
x1 = 1 | 969.32 | 1.38249 | 1176.6

CCCCC(=O)O [pentanoic acid]
[1], 101.33 kPa
Conditions | mass density [kg/m3] | speed of sound [m/s]
293.15 K | 939.41 | 1234
298.15 K | 934.85 | 1216
303.15 K | 930.29 | 1197.9
308.15 K | 925.73 | 1179.9
313.15 K | 921.16 | 1162.1

[2]
Conditions | refractive index
293.15 K | 1.4084
298.15 K | 1.40641
303.15 K | 1.40438
308.15 K | 1.40234
313.15 K | 1.4003

CCCC(=O)O [butanoic acid]
[1], 101.33 kPa
Conditions | mass density [kg/m3] | speed of sound [m/s]
293.15 K | 957.78 | 1195.5
298.15 K | 952.81 | 1176.9
303.15 K | 947.94 | 1158.2
308.15 K | 942.92 | 1139.7
313.15 K | 938.05 | 1121.3

[2]
Conditions | refractive index
293.15 K | 1.39826
298.15 K | 1.3963
303.15 K | 1.39421
308.15 K | 1.39217
313.15 K | 1.3901

CCCCC(=O)O [pentanoic acid] + CCCCCCC(=O)O
x2 = 0
Conditions | mass density, [3] [kg/m3] | refractive index, [4] | speed of sound, [3] [m/s]
293.15 K | 939.41 | 1.4084 | 1234
298.15 K | 934.85 | 1.40641 | 1216
303.15 K | 930.29 | 1.40438 | 1197.9
308.15 K | 925.73 | 1.40234 | 1179.9
313.15 K | 921.16 | 1.4003 | 1162.1

CCO [ethanol] + CCOC(=O)OCC
298.15 K, x2 = 0
Conditions | mass density [kg/m3] | refractive index | speed of sound [m/s]
[3] | 785.24 | – | 1142.8
[4] | – | 1.35945 | –

CCO [ethanol]
Conditions | speed of sound [m/s]
[1], 298.15 K, 101 kPa, Frequency=3 MHz | 1142.8

Conditions | mass density [kg/m3]
[1], 298.15 K, 101 kPa | 785.24

Conditions | refractive index
[2], 298.15 K | 1.35945

CCCC(=O)O [butanoic acid] + CCCCC(=O)O
x1 = 1
Conditions | mass density, [3] [kg/m3] | refractive index, [4] | speed of sound, [3] [m/s]
293.15 K | 957.78 | 1.39826 | 1195.5
298.15 K | 952.81 | 1.3963 | 1176.9
303.15 K | 947.94 | 1.39421 | 1158.2
308.15 K | 942.92 | 1.39217 | 1139.7
313.15 K | 938.05 | 1.3901 | 1121.3
